In US20110076318A1, “RETINOID-CONTAINING SUSTAINED RELEASE INTRAOCULAR IMPLANTS AND RELATED MATTERS” (Allergan, Inc., priority 2004, published 2011):
Values after ≈ are worked out from the molar mass of the structure shown. Where two headings read alike, the source gives them in different places.

Legend:
[1] = tested on: retinal function and structure; assay: Blue light retinal degeneration model; assay type: in vivo, Sprague dawley rats; details: daily oral doses for five days before 12000 lux blue light, eight hours
Procedure: AGN 194310, AGN 194204, tazarotene and AGN 199852 were evaluated in the blue light retinal degeneration model. Sprague dawley rats were pretreated for five days with daily oral doses of the retinoids. The rats were then exposed to high intensity light, 12000 lux blue fluorescent, for eight hours. Five days post exposure the retinal function was assessed by full flash ERG and structure by outer nuclear layer thickness.

[2] = tested on: PVR induced by human RPE cells; assay: PVR model with retinoid implants, Fastenberg scale; assay type: in vivo
Excerpt: PLA and PLGA implants 1.5 mm in diameter and 3 mm in length were fabricated by extrusion of the polymer drug blend. Tazarotenic acid (the free acid of Tazarotene) Tazarotene and 13-cis-retinoic acid were loaded into the implants at 10% concentrations. Briefly, pigmented rabbits were vitrectomized followed by intravitreal injection of 500,000 human RPE cells. After injection of the RPE cells the retinoid implants were placed into the vitreous and anchored to the sclera with the suture used to close the sclerotomy.
The eyes were examined weekly for 4 weeks. Severity of PVR was graded based on the Fastenberg scale. At 4 weeks gross pathology and limited histopathology were conducted.

Solubility of tazarotene = assay type: physicochemical
Procedure: This was due to the extremely low solubility of Tazarotene in 0.9% saline, which was determined to be less than 1 μg/mL. Therefore, it was difficult to see any differences in the release profiles of different formulations. Work began to search for a release medium that would differentiate the release profiles of all formulations.

[3] = Measured lipophilicity of tazarotene; assay type: physicochemical
[4] = Intraocular pharmacokinetics after single intravitreal injection of Tazarotene; assay type: in vivo, female New Zealand White rabbits; details: rabbit; for concentration at 2 hr / concentration at 24 hr / half-life: female, New Zealand White; for concentration at 2 hr / concentration at 24 hr: other: intravitreal injection; for concentration at 2 hr: 2 hr post dose; for concentration at 24 hr: 24 hr post dose; for half-life: topical or ocular
Procedure: The intraocular pharmacokinetics of Tazarotene was assessed in female New Zealand White rabbits following a single intravitreal injection. The rabbits were dosed with bilateral intravitreal injections of Tazarotene (1250 ng in 50 μL). At 0.5, 1, 2, 4, 8, 12, and 24 hr post dose, animals were sacrificed and the aqueous humor, vitreous humor, and retina samples were analyzed. […] The Tazarotene concentration in the retina was close to its vitreal concentration at all time points, declining from 859±131 ng/g at 2 hr post dose to 93.1±28.9 ng/g by 24 hr post dose. […] It was shown that Tazarotene has a relatively long intravitreal half-life and that the retinal concentration parallel the vitreous when given as a neat injection. However, despite a very low solubility the clearance of Tazarotene from the retina is fast enough to require sustained release for extended duration of action.

photoreceptors = assay: Rhodopsin mutant transgenic rat models of retinal degeneration; assay type: in vivo, Transgenic S334ter rats; details: i.p., S334ter line 3 and line 4
Procedure: The objective of this study was to determine the efficacy of various retinoids in preventing retinal damage or improving retinal survival in rhodopsin mutant transgenic rat models of retinal degeneration. The overall goal of the research was to investigate potential photoreceptor survival in mutant rhodopsin transgenic rats using RAR α, RAR β γ, and RXR retinoid agonists.
The experimental design was straightforward. A compound was injected daily to line 3 and every two days for line 4 animals (i.p.) for a given period and animals were sacrificed at the end by CO2 overdose followed immediately by vascular perfusion of mixed aldehydes. Two litters of rats were used:
1. Transgenic S334ter-3 rats. Line 3 bears a rhodopsin mutation S334ter. […] Injection of a compound will be given daily from PD 6 (post-delivery day 6) to PD 20.
2. Transgenic S334ter-4 rats. Line 4 bears a rhodopsin mutation S334ter. Animals of this line experience a 80% loss of photoreceptors by 60 days after birth. The ONL is reduced to one row of nuclei. Injection of a compound will be given every other day from PD 25 to PD 60.
For the line 3 animals, treatment started at PD 6 and the endpoint was PD 20. For the line 4, injection began at PD 25 and ended at PD60 when eyes were harvested. Eyes were embedded in an Epon/Araldite mixture for sectioning at 1 μm thickness along the vertical meridian. Protection of photoreceptors was be evaluated by counting the rows of nuclei in the outer nuclear layer.
The outcome was a measure of retinal outer layer thickness, and cytology over an 8 week period. Compounds included the retinoid agonists tazarotene (RAR β γ), AGN 195183 (RAR α) and AGN 194204 (RXR). […] This is a fairly harsh model and as such the modest improvement by tazarotene is quite significant.

[5] = Plasma concentrations after topical and oral dosing of tazarotene; assay type: in vivo, patients; details: for Cmax: human, po, read-out: TAZAROTENE Cmax
Procedure: […] For the most part tazarotene is not observed in the plasma after topical or oral administration. Facile hydrolysis by pre-systemic metabolism rapidly generates the free acid. […] It is important to note that these are plasma concentrations and the eye plasma distribution ratio is 0.02. Over 90% of all patients in the phase 3 clinical trials had concentrations of the parent compound, tazarotene, <1 ng/mL with the highest being 6 ng/mL.
Oral delivery of 1.1 mg and 6 mg multiple doses led to 28.9 ng/mL and 227 ng/ml peak levels with a 2.56 ng/mL trough. This corresponds to a maximum possible 4 ng/mL ocular level for the highest dose. FIG. 11 depicts the tissue distribution of tazarotenic acid. The eyes show a 2% tissue/plasma ration in the rat. It should be noted that tazarotenic acid is 99% protein bound and distribution is limited to unbound drug.

[6] = retina, 1250 ng, read-out: Tazarotene concentration in the retina
[7] = vitreous humor, 1250 ng intravitreal, read-out: Tazarotene concentration in the vitreous humor

**Q.** Which “protection of retinal function (ERG) and structure (outer nuclear layer thickness)” value [1] does the source give for `CCOC(=O)c1ccc(C#Cc2ccc3c(c2)C(C)(C)CCS3)nc1` [Tazarotene, Ethyl 6-[(4,4-dimethylthiochroman-6-yl)ethynyl]nicotinate] here?
**A.** significantly protect both retinal function and structure

**Q.** And the “safety by gross pathology and limited histopathology” value ([2]; at 4 weeks)?
**A.** good safety profile

**Q.** And the “eyes progressed to traction retinal detachment” value ([2]; at 28 days, 10% loaded PLA/PLGA implants, intravitreal)?
**A.** 12%

**Q.** And the solubility (Solubility of tazarotene; 0.9% saline, saline or isotonic, read-out: solubility in 0.9% saline)?
**A.** < 1 µg/mL

**Q.** And the solubility (Solubility of tazarotene; water, read-out: solubility in water)?
**A.** 1 µg/mL (≈ 2.85 µM)

**Q.** What about the logP [3] of the same compound?
**A.** 4.3

**Q.** And the logD ([3]; pH 7.4, value marked measured in Table 3, read-out: log D pH 7.4 (measured))?
**A.** 4.3

**Q.** And the concentration at 2 hr [4, 6]?
**A.** 859 ± 131 ng/g

**Q.** And the concentration at 24 hr [4, 6]?
**A.** 93.1 ± 28.9 ng/g

**Q.** And the half-life ([4]; retina, 1250 ng, read-out: mean t1/2 of elimination from the retina (converted))?
**A.** 7.63 h

**Q.** And the concentration at 2 hr [4, 7]?
**A.** 578 ± 77 ng/g

**Q.** What about the concentration at 24 hr [4, 7] of the same compound?
**A.** 115 ± 33 ng/g

**Q.** And the half-life ([4]; vitreous humor, 1250 ng, read-out: mean half-life (t1/2) in vitreous humor (converted))?
**A.** 9.22 h

**Q.** And the “mean vitreal clearance (Cl)” value ([4]; in vivo)?
**A.** 0.123 mL/h

**Q.** What about the vitreal clearance ([4]; in vivo) of the same compound?
**A.** 2.95 mL/day

**Q.** What about the “protection of photoreceptors (outer nuclear layer)” value (photoreceptors) of the same compound?
**A.** only compound to show efficacy

**Q.** And the Cmax ([5]; plasma, 1.1 mg/Day, plasma, Oral 1.1 mg/Day, in 95%)?
**A.** < 0.1 ng/mL

**Q.** What about the Cmax ([5]; plasma, 3 mg/Day, plasma, Oral 3.0 mg/Day) of the same compound?
**A.** < 0.1 ng/mL

**Q.** What about the Cmax ([5]; plasma, 6 mg/Day, plasma, Oral 6.0 mg/Day) of the same compound?
**A.** < 0.1 ng/mL

**Q.** And the “highest plasma concentration of tazarotene in phase 3 clinical trials” value ([5]; in vivo)?
**A.** 6 ng/mL

**Q.** What about the “plasma concentration of tazarotene in phase 3 clinical trials” value ([5]; over 90% of all patients) of the same compound?
**A.** < 1 ng/mL

**Q.** And the “TAZAROTENE Cmax” value ([5]; plasma, Topical Gel 0.1%, for >90%)?
**A.** BLQ for >90%
